Measured values as given in patent US20220033448A1, “METHODS FOR AGGREGATION OF PROTEINS” (priority 2011, published 2022).
No end group written: not given here.

Key:
Candida albicans SC5314 [1] = assay: Adherence of C. albicans SC5314 to epithelial cell line TR-146; assay type: cell-based; settings: adhesion 1 h
Experimental: (§1) As discussed herein before, C. albicans Als3 also plays a role in adherence and invasion to epithelial and endothelial cells. […] Here we investigated the effect of external application of interferor peptide F9 on C. albicans SC5314 adherence and invasion to epithelial cells. Thereto, Candida cells were incubated together with the human cells (epithelial cell line TR-146) in the presence of peptide F9 during adhesion (1 h) or invasion (3 h). The amount of adhered and internalized cells was determined by counting using epifluorescence.
C. albicans strains were grown in liquid YPD, succinate, pH 6.5 or YNB (4% D-glucose) at 30° C. in a shaking incubator overnight. Candida cells were washed three times with 1× PBS and determined to a final concentration 1×10^5 cells/ml in DMEM containing NaHCO3, D-glucose, Na-pyruvate and stable glutamine without FCS. The TR-146 were grown on 12 mm glass slides and inoculated with Candida cells. Different concentrations of positive peptide F9 (50 μM, 10 μM and 2.5 μM) and negative peptides F9_negat, 13 and 20 (50 μM) were tested on Candida adhesion to epithelial cells. Adhesion assay was allowed for 1 h at 37° C., 5% CO2. After adhesion, the cells were washed three times with 1× PBS to remove non-adherent cells and then fixed with 4% paraformaldehyde for 30 min at room temperature.
After extensive rinsing with 1× PBS, the cells were permeabilized in 0.5% Triton X-100 in water for 5 min, and subsequently stained with calcofluor white (dilution 1:100) for 15 min and further washed with water, three times for 10 min, at 30° C., 180 rpm. Coverslips were mounted inverted on a microscope slide and quantified under epifluorescence using a filter set to detect calcofluor white (filter for DAPI) (Leica DFC350 FX, Mannheim, Germany). The percentage of adhered cells was calculated as an average of attached Candida cells on one hundred areas spread over the entire surface of the coverslip.

Candida albicans SC5314 [2] = assay: Invasion of C. albicans SC5314 into epithelial cell line TR-146; assay type: cell-based; settings: invasion 3 h
Experimental: as §1
The monolayers of TR-146 cell lines were infected with Candida cells as previously described in 6.2.15. After 3 h incubation period of monolayers with Candida cells at 37° C., 5% CO2, the medium above the epithelial cells was aspirated and the monolayers were rinsed three times with 1× PBS to remove fungal cells which were not associated with epithelial cells. Next, the epithelial cells were fixed with 4% Histofix (Roth) for 20 min at 37° C. All fungal cells remaining adherent to the surface were stained for 1 h with a rabbit anti-C. albicans polyclonal antibody (Acris Antibodies, Germany) (dilution 1:2000) and counterstained with a secondary anti-rabbit IgG conjugated with Alexa Fluor 488 (Invitrogen) (dilution 1:5000). After extensive rinsing with 1× PBS, the cells were permeabilized in 0.5% Triton X-100 in water for 5 min. Further, adherent and invading parts of fungal cells within epithelial cells were stained with calcofluor white (dilution 1:100) for 15 min and washed three times with water, for 10 min at 30° C., 180 rpm. Coverslips were mounted inverted onto glass slides and the stained cells were visualized with epifluorescence using a filter set to detect calcofluor white (filter for DAPI) and Alexa Fluor 488 (Leica DFC350 FX, Mannheim, Germany). The percentage of invading C. albicans cells was determined by dividing the number of internalized cells by the total number of adherent cells. At least 100 fungal cells were counted on each coverslip.

Candida albicans SC5314 [3] = assay: In vivo subcutaneous C. albicans biofilm model in rats (polyurethane catheters, CFU)
Experimental: In a next step we also investigated a potential inhibitory role of interferor peptide F9 during in vivo C. albicans biofilm development. We used the in vivo subcutaneous C. albicans biofilm model in rats (i.e. in vivo biofilms formed inside polyurethane triple lumen catheter pieces) as further outlined in the materials and methods section. Only one concentration of peptide F9 (i.e. 50 μM) was tested in the experimental conditions. The peptide was administrated ex vivo, during initial attachment of Candida to the substrate (90 min, 37° C.). Afterwards, the catheters were washed and implanted subcutaneously in rats. Biofilms were studied six days post implantation and quantified by CFUs. […]
Polyurethane triple lumen intravenous catheters (2.4 mm diameter) cut into segments of 1 cm (Arrow International Reading, USA) were incubated overnight in FBS at 37° C. […] The skin was disinfected and catheter fragments were removed from under the subcutaneous tissue, washed twice with 1× PBS and quantified or visualized.The effect of peptides promoting the aggregation of Als3p during Candida biofilm development in vivo was characterized, as well. […]
The amount of fungal biofilm biomass formed inside the catheter lumen of in vitro and in vivo explanted catheters was determined by colony forming units (CFU). […] CFUs were counted after two days at 37° C.

S. aureus MRSA 326 = assay: Neutropenic-mouse thigh model; settings: neutropenic mice; bolus i.v. dose of 15 mg/kg 2 h after inoculation; sacrificed 4 hours post-infection
[4] = system: Micrococcus luteus ATCC 9341; assay: MIC, microbroth dilution; settings: planktonic, 18 hours
Experimental: (§2) Bacteria were grown in a shaking incubator at 37° C. and 160rpm in 50 ml BHI , using individual colonies retrieved from a fresh overnight TSA-sheep blood plate. The cultures were grown to a density of approximately 1×10^8cells/ml and then diluted to 5×10^5 cells/ml in CAMHB (Mc Farland 0.5). Each well contained 100p.I (50p.I of peptide containing MHB plus 50 μl inoculum). The final cell density was 1×10^5 to 5×10^5/ml. After addition of the cell suspension, plates were incubated at 37° C. for 18 to 24 hours. The optical density at 590 nm (OD590) of each well was measured after 5 seconds of shaking the plate using Perkin Elmer spectrophotometer (1420 Multilabel Counter Vicotr 3). […] Each well, where no growth was observed, was also plated on TSA-sheep blood agar plates, incubated at 37° C. overnight and visually inspected.

S. haemolyticus = assay: MIC, microbroth dilution; settings: planktonic, 18 hours
Experimental: as §2

Row | Sequence | decrease of Candida adhesion to epithelial cells compared to the control (Candida albicans SC5314 [1]; 2.5 μM) [%] | decrease of Candida adhesion to epithelial cells compared to the control (Candida albicans SC5314 [1]; 10 μM) | decrease of Candida adhesion to epithelial cells compared to the control (Candida albicans SC5314 [1]; 50 μM) [%] | effect on invasion of epithelial cells (Candida albicans SC5314 [2]; 2.5 μM) | decrease of invasion of epithelial cells (Candida albicans SC5314 [2]; 10 μM) [%] | decrease of invasion of epithelial cells (Candida albicans SC5314 [2]; 50 μM) [%] | mean CFUs ±SD obtained per catheter fragment (Candida albicans SC5314 [3]; 50 μM ex vivo during adhesion (90 min, 37° C.), catheters implanted subcutaneously in rats, six days post implantation, control 3.69 ±0.42) | peptide-treated catheters containing less than 2.0 log10 CFU/catheter fragment (Candida albicans SC5314 [3]; four out of 20 catheters, 50 μM, rats, six days) [%] | reduction of expansion of initial inoculum (S. aureus MRSA 326) [Log10 CFU/ml] | MIC [4] | MIC (S. haemolyticus)
1 | RKLLFNLGSRNGIVIVATTR [F9] | ~15 | approximately 20% | 40 | did not have any effect on invasion | 15 | 34 | 2.25 ±1.08 login CFU/catheter fragment | 20 |  |  | 
2 | RILLGLIRRGSRILLGLIRR [C30] |  |  |  |  |  |  |  |  | 6.9 | Micrococcus luteus ATCC 9341: 3 μg/ml | S. haemolyticus: 1.5 μg/ml
